# Laboratory results published in ChEMBL document CHEMBL5380842, “Discovery of a Potent and Selective CCR8 Small Molecular Antagonist IPG7236 for the Treatment of Cancer” (J Med Chem, 2023).
# Key:
# [1] = Unbound fraction in mouse plasma; type: ADME, cell-free
# [2] = Stability in rat liver microsomes assessed as half life; type: ADME, Microsome
# [3] = Stability in dog liver microsomes assessed as half life; type: ADME, Canis lupus familiaris, Microsome
# [4] = Stability in human hepatocytes assessed as half life; type: ADME, cell-based, Hepatocyte
# [5] = Stability in mouse hepatocytes assessed as half life; type: ADME, cell-based, Hepatocyte
# Cytochrome P450 2C8 = biological target: T1, Cytochrome P450 2C8 (Homo sapiens, UniProt P10632); assay: Inhibition of CYP2C8 (unknown origin); type: ADME
# T1 sequence (P10632 whole entry): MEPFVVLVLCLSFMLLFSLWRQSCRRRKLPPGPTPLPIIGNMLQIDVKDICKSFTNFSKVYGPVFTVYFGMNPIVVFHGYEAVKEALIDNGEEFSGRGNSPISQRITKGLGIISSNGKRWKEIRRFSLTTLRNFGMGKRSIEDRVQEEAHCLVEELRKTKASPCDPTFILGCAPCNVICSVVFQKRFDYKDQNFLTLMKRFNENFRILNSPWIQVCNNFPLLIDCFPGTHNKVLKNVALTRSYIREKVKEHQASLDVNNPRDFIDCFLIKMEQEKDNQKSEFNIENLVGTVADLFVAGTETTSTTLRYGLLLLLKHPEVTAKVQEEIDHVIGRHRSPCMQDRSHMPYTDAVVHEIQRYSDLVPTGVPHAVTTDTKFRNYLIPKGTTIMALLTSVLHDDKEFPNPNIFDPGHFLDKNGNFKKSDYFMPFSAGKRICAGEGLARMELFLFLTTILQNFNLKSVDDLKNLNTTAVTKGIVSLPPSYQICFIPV
# [6] = biological target: Voltage-gated inwardly rectifying potassium channel KCNH2 (Homo sapiens, UniProt Q12809); assay: Inhibition of hERG; type: toxicity
# Sequence of Voltage-gated inwardly rectifying potassium channel KCNH2 (Q12809 whole entry): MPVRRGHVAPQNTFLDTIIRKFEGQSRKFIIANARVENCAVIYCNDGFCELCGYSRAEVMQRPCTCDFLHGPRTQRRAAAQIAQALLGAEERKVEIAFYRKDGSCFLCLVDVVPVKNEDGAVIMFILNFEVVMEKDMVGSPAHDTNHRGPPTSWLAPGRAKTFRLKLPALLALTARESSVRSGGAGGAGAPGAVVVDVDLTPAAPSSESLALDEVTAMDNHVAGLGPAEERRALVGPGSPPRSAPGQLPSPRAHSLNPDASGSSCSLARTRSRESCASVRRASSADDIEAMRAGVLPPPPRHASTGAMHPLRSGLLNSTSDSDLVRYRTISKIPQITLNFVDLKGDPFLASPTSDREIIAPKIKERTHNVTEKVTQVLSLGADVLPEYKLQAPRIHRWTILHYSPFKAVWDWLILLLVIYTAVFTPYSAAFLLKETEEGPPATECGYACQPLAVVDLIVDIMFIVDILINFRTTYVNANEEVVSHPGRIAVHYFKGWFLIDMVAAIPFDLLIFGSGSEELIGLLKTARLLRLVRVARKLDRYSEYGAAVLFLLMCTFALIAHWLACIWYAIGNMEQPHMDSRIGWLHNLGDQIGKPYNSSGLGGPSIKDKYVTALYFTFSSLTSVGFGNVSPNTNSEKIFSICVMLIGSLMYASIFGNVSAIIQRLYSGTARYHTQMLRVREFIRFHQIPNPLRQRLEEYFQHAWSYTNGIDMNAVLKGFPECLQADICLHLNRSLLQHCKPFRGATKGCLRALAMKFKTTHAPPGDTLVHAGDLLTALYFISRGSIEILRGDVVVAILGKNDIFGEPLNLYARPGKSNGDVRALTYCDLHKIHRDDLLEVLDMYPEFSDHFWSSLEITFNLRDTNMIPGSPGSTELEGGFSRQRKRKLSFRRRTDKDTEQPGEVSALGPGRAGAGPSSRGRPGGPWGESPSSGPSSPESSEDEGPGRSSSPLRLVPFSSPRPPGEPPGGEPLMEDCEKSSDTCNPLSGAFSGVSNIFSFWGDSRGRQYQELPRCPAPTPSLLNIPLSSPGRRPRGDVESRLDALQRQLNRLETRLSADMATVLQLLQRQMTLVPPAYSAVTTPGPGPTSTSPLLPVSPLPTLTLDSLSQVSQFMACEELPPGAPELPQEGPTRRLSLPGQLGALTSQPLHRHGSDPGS
# [7] = Volume of distribution at steady state in ICR mouse at 1 mg/kg, iv; type: ADME, organism-based; settings: in vivo, read-out: Vdss
# [8] = Tmax in ICR mouse at 50 mg/kg, po; type: ADME, organism-based; settings: in vivo
# [9] = Volume of distribution at steady state in Beagle dog at 3 mg/kg, iv; type: ADME, organism-based, Canis lupus familiaris; settings: in vivo, read-out: Vdss
# [10] = AUClast in Beagle dog at 10 mg/kg, po; type: ADME, organism-based, Canis lupus familiaris; design: dose 10 mg/kg, route po; settings: in vivo
# [11] = Tmax in Beagle dog at 10 mg/kg, po; type: ADME, organism-based, Canis lupus familiaris; settings: in vivo
# [12] = Clearance in Cynomolgous monkey at 1 mg/kg, iv; type: ADME, organism-based, Macaca fascicularis; settings: cynomolgus monkey, in vivo
# [13] = AUClast in Cynomolgous monkey at 1 mg/kg, iv; type: ADME, organism-based, Macaca fascicularis; design: dose 1 mg/kg, route iv; settings: cynomolgus monkey, in vivo
# [14] = Volume of distribution at steady state in Cynomolgous monkey at 1 mg/kg, iv; type: ADME, organism-based, Macaca fascicularis; settings: cynomolgus monkey, in vivo, read-out: Vdss
# [15] = Tmax in Cynomolgous monkey at 50 mg/kg, po; type: ADME, organism-based, Macaca fascicularis; settings: cynomolgus monkey, in vivo
structure (smiles),measurement,setting,value
Cc1cc(S(=O)(=O)N[C@H](C)C2CCN(C)CC2)ccc1NC(=O)c1ccccc1C,fraction unbound,[1],0.449
same,half-life,[2],2.5 h
same,half-life,[3],2.63 h
same,half-life,[4],8.7 h
same,half-life,[5],43.5 h
same,IC50,Cytochrome P450 2C8,> 10 µM
same,IC50,[6],> 30 µM
same,Vd,[7],2.2 L/kg
same,Tmax,[8],0.5 h
same,Vd,[9],2.2 L/kg
same,AUC(0-t),[10],6480 ng·h/mL
same,Tmax,[11],0.5 h
same,clearance,[12],31.1 mL/min/kg
same,AUC(0-t),[13],538 ng·h/mL
same,Vd,[14],2.8 L/kg
same,Tmax,[15],2.3 h
